Columns and labels:
4T1 cells = experiment: Cellular distribution and uptake of DOX by confocal microscopy; type: cell-based, mouse; details: DOX 10 mg/L, 4 hours
Procedure: Free DOX (10 mg/L) and DOX-loaded micelles (DOX content: 10 mg/L) in RPMI 1640 medium (without folate) were incubated with 4T1 cells for 4 hours before examination. The cells on the cover glass were thoroughly washed three times with PBS and visualized by CLSM (Olympus FV300, Japan). DOX was excited at 532 nm with emission at 595 nm. The laser power was 10%. All the observations were conducted using the same resolution.

[1] = system: 4T1 mouse breast cancer cells; experiment: Cytotoxicity test (MTT); type: cell-based; details: 4T1 cells, 48 hours, 37° C.
Procedure: 4T1 mouse breast cancer cells were cultured in RPMI 1640 (without folate) supplemented with 10% FBS, 5% penicillin, 2 mM L-glutamine (Sigma), and incubated at 37° C., 5% CO2. The cells were seeded onto 96-well plates at 10,000 cells per well, and incubated for one day. […] The media in the wells were replaced with 100 μL of the pre-prepared samples. The plates were then returned to the incubator and maintained in 5% CO2, at 37° C. for 48 hours. Fresh growth media and 10 μL aliquots of MTT solution were used to replace the mixture in each well after 48 hours. The plates were then returned to the incubator and maintained in 5% CO2, at 37° C., for a further 3 hours. The growth medium and excess MTT in each well were then removed. DMSO (150 μL) was then added to each well to dissolve the internalised purple formazan crystals. An aliquot of 100 μL was taken from each well and transferred to a fresh 96-well plate. Each sample was tested in eight replicates per plate. Three plates were used, making a total of 24 replicates per sample. The plates were then assayed at 550 nm and 690 nm. The absorbance readings of the formazan crystals were taken to be that at 550 nm subtracted by that at 690 nm. The results were expressed as a percentage of the absorbance of the blank control.

[2] = Biodistribution in mice bearing subcutaneous 4T1 breast tumours; type: in vivo; details: 5 mg/kg DOX
Procedure: Female balb/c (body weight: 19-21 g) were subcutaneously implanted with 4T1 cells (10^7 cells per animal). Tumours were allowed to grow for 2 weeks. Free DOX and DOX-loaded micelles were administrated to the animals by tail vein injection at an equivalent DOX dose of 5 mg/kg. At 10 minutes, 30, minutes, 2 hours and 4 hours, blood samples were taken, and the animals were sacrificed. The liver, lung, heart, spleen, kidney and tumour were removed, and kept at −80° C. for future analysis. The organs were weighted and homogenized. DOX distributed in different organs was extracted using chloroform and isopropanol, and analyzed as described by H. S. Yoo, T. G. Park, J. Control. Rel. 2004, 100, 247. Homogenized tissue was added into an acidic hydrolysis buffer containing 2.0 M HCl solution at 80° C. for 10 minutes. The supernatant was collected, and 0.9 mL of the mixture of chloroform and isopropanol (3:1 in volume) was then added. After vortex-mixing, the organic layer was collected by centrifugation at 16,000 rpm for 15 minutes at room temperature. The solution was dried, and re-dissolved in a mobile phase and analyzed by high performance liquid chromatography (HPLC). The recovery rate was 70%, and corrected by an internal standard. The HPLC system consisted of a Waters 2690 separation module and Waters 2475 multi λ fluorescence detector. […] The DOX peak was detected at an excitation wavelength of 480 nm and an emission wavelength of 580 nm.

[3] = tail vein injection, 4T1 tumour

t1/2 in the blood ([2]; tail vein injection): about 30 minutes
maximum DOX level in tumour tissue [2, 3]: 2.9 µg/g
time at which maximum DOX level in tumour was reached [2, 3]: 30 min
DOX level in tumour tissue at 240 minutes ([2]; tail vein injection, 240 minutes): 1.0 µg/g
SMILES: COc1cccc2c1C(=O)c1c(O)c3c(c(O)c1C2=O)C[C@@](O)(C(=O)CO)C[C@@H]3O[C@H]1C[C@H](N)[C@H](O)[C@H](C)O1.Cl [free DOX, Doxorubicin hydrochloride]
cellular distribution of DOX (4T1 cells): only accumulated in the nucleus
IC50 value of DOX [1]: 3.0 µg/mL
organ distribution of DOX ([2]; spleen, kidney, heart, liver and lung): accumulating uniformly in the heart, lung and liver

Reference: US8512757B2, “Micelles for drug delivery” (Agency for Science, Techology and Research, priority 2006, dated 2013)
